In patent US20260042759A1, “INHIBITOR CONTAINING BICYCLIC DERIVATIVE, PREPARATION METHOD THEREFOR AND USE THEREOF” (SHANGHAI HANSOH BIOMEDICAL CO., LTD., priority 2019, published 2026):

Assays:
[1] = target: T1, RET (Homo sapiens, UniProt P07949); experiment: HTRF kinase assay, RET wild-type; assay type: biochemical; conditions: ATP at Km
T1 construct: purchased Carna 08-159
Source text: • RET enzyme was purchased from Carna Company, and the article number was 08-159; • RET M918T enzyme was purchased from Carna Company, and the article number was 08-508; • KIF5B-RET was purchased from SignalChem Company, the article number was R02-19FG-05; • CCDC6-RET was purchased from SignalChem Company, the article number was R02-19BG-05; • RET V804M enzyme was purchased from Thermofisher Company, and the article number was PV6223; • RET V804L enzyme was purchased from Thermofisher Company, and the article number was PV4397; • HTRF KinEASE-TK kit was purchased from Cisbio Company, and the article number was 62TK0PEC; • ATP was purchased from Thermofisher Company, and the article number was PV3227; • 384-well plate was purchased from PerkinElmer Company, and the article number was 6007290.
In this experiment, the homogeneous time-resolved fluorescence (HTRF) method was used for the detection of compounds on RET kinase activity.

[2] = target: T2, KDR kinase (Homo sapiens, UniProt P35968); experiment: HTRF kinase assay, KDR; assay type: biochemical; conditions: for IC50: HTRF, ATP at Km; for Ratio (KDR/RET): KDR IC50 / RET IC50
T2 construct: purchased Carna 08-191
Source text: • KDR kinase was purchased from Carna Company, and the article number was 08-191; • HTRF KinEASE-TK kit was purchased from Cisbio Company, and the article number was 62TK0PEC; • ATP was purchased from Thermofisher Company, and the article number was PV3227; • 384-well plate was purchased from PerkinElmer Company, and the article number was 6007290.
In this experiment, the homogeneous time-resolved fluorescence (HTRF) method was used for the detection of compounds on KDR kinase activity.

[3] = test system: TT cells (MTC, RET C634W); experiment: TT cell proliferation (CellTiter-Glo); assay type: cell-based, human
Protocol: When TT cells were cultured to the appropriate fusion level, TT cells were collected, and the cells were adjusted to the appropriate cell concentration using complete medium, and the cell suspension was spread in a 96-well plate, 90 µL per well, and placed in a 37° C., 5% CO2 incubator overnight; and compound solutions of different concentrations were prepared using DMSO and culture medium; and a solvent control was set, the compound solution was added to a 96-well plate, 10 µL per well, at 37° C. in a 5% CO2 incubator for 72 hours; CellTiter-Glo solution was added thereto and the mixture was mixed well by shaking, incubated for 10 min in the dark, and read by BioTek Synergy H1 microplate reader.
The luminescence signal values were used to calculate the inhibition rate, the concentration and the inhibition rate were fitted to a nonlinear regression curve using Graphpad Prism software.

[4] = test system: phosphorylation of ERK, a downstream signal factor of TT cells; experiment: ERK phosphorylation in TT cells (Western Blot); assay type: cell-based, human; conditions: for inhibition of the phosphorylation level of ERK in TT cells, overall: 3.7-300 nM, 2 hours
Protocol: In this experiment, the inhibitory effect of compounds on the phosphorylation level of ERK, a downstream signaling factor in TT cells, was measured by Western Blot method. When TT cells were cultured to the appropriate fusion degree, the cells were collected and adjusted to a suitable cell concentration using complete medium, the cell suspension was spread in a 24-well plate, 1 mL per well, and placed in a 37° C., 5% CO2 incubator overnight, and compound dilutions of different concentrations (3.7 nM, 11.1 nM, 33.3 nM, 100 nM, 300 nM) were added at 37° C. and acted for 2 hours; the cell supernatant was aspirated, washed one time with PBS, and the proteins were collected with lysate; after protein denaturation, Western blot experiments were performed: performing protein electrophoresis at 120V for approximately 75 minutes, followed by 45 minutes of transfer to PVDF membranes at 10V with a semi-dry transfer instrument, enclosing at 5% BSA for 1 hour at room temperature, and then PVDF membranes were cut into strips of appropriate size and incubated with prepared antibody dilutions overnight at 4° C. and washed 6 times with TBST, followed by imaging with goat anti-mouse secondary antibody and sheep anti-rabbit secondary antibody for 1 hour at room temperature, and the membrane was washed 6 times with TBST for imaging in the Biorad ChemiDoc™ MP Imaging System.
The inhibitory effect of compounds on ERK phosphorylation levels in TT cells at different concentrations was determined by detecting protein bands.

[5] = test system: TT xenograft tumor; experiment: Subcutaneous xenograft tumor model of human thyroid cancer cell TT; assay type: in vivo, BALB/c nude mice; conditions: for Tumor inhibition rate TGI d 22 / Tumor volume (mm^3, mean ± SEM) d 22: oral BID 21 days; for Tumor volume (mm^3, mean ± SEM) d 0: oral BID
Protocol: TT cells were cultured in vitro in a monolayer under the following conditions: F-12K medium with 20% heat-inactivated fetal bovine serum and 1% penicillin-streptomycin double antibodies at 37° C. and 5% CO2. Trypsin-EDTA was used twice a week digestion for digestion treatment passaging. When cells were in an exponential growth period, cells were collected, counted and inoculated.
TT cells were collected when they were full in a logarithmic growth period, ensuring over 90% of vitality. 0.2 mL cell suspension containing about 1×10^7 of TT cells (cells suspended in basic F-12K medium and added with 50% Matrigel) was subcutaneously inoculated into the right back tumor of each mouse […].
• 1. The day of grouping was day 0 (DO). The interval of BID administration was 6-8 h/18-16 h. The first dose was given in the afternoon of day DO and the last dose was given in the morning of day D21. • 2. Dosing volume: […] according to the body weight of nude mice.
Animal grouping: Before administration, the animals were weighed and the tumor volume was measured. The mice were randomly grouped according to tumor volume (randomized grouping design) with 5 animals per group.
Experimental index: The diameter of tumor was measured by vernier caliper twice a week. The tumor volume was calculated by the formula: V=a×b^2/2, a and b denote the long and short diameter of the tumor, respectively. The tumor suppressive efficacy of the compounds was evaluated by TGI (%). TGI (%)=(1−(TVTreatment/Dx−TVTreatment/D1)/(TVControl/Dx−TVControl/D1))×[…].
T test was used for comparison between two groups. One-way ANOVA was used for comparison among three or more groups. If there were significant differences in F values, multiple comparisons should be made after ANOVA analysis. GraphPadPrism 5.0 was used for all data analysis.

[6] = Balb/C mouse pharmacokinetics, oral; assay type: in vivo; conditions: Balb/C mice, p.o., 5 mg/kg, plasma
Protocol: The pharmacokinetic behavior of the following compound embodiments, administered orally at a dose of 5 mg/kg in plasma in mice, was studied using Balb/C mice as test animals.
Balb/C Mouse 6/embodiment, male, Shanghai Jiesijie Laboratory Animal Co., Ltd, Animal Production License No. (SCXK (Shanghai) 2013-0006 N0.311620400001794).
Balb/C mice, males; p.o. after overnight fasting, respectively, at a dose of 5 mg/kg, administered in a volume of 10 mL/kg.
0.5% CMC-Na(1% Tween80) was dissolved by ultrasound, and prepared into clear solution or uniform suspension.
Before and after administration, 0.1 mL of blood was collected from mice at 0, 0.5, 1, 2, 4, 6, 8 and 24 hours by orbital collection, placed in EDTA-K2 tubes, centrifuged at 6000 rpm at 4° C. for 6 min to separate plasma, and stored at −80° C.
40 μL of plasma sample was precipitated by adding 160 μL of acetonitrile, mixed and centrifuged at 3500×g for 5-20 min.
100 μL of the supernatant solution after treatment was taken to analyze the concentration of the test compound by LC/MS/MS.
The main pharmacokinetic parameters were calculated using WinNonlin 6.1 and the results of the mouse pharmacokinetic experiments were shown in Table 8 below.

T2 sequence (P35968 20-1356): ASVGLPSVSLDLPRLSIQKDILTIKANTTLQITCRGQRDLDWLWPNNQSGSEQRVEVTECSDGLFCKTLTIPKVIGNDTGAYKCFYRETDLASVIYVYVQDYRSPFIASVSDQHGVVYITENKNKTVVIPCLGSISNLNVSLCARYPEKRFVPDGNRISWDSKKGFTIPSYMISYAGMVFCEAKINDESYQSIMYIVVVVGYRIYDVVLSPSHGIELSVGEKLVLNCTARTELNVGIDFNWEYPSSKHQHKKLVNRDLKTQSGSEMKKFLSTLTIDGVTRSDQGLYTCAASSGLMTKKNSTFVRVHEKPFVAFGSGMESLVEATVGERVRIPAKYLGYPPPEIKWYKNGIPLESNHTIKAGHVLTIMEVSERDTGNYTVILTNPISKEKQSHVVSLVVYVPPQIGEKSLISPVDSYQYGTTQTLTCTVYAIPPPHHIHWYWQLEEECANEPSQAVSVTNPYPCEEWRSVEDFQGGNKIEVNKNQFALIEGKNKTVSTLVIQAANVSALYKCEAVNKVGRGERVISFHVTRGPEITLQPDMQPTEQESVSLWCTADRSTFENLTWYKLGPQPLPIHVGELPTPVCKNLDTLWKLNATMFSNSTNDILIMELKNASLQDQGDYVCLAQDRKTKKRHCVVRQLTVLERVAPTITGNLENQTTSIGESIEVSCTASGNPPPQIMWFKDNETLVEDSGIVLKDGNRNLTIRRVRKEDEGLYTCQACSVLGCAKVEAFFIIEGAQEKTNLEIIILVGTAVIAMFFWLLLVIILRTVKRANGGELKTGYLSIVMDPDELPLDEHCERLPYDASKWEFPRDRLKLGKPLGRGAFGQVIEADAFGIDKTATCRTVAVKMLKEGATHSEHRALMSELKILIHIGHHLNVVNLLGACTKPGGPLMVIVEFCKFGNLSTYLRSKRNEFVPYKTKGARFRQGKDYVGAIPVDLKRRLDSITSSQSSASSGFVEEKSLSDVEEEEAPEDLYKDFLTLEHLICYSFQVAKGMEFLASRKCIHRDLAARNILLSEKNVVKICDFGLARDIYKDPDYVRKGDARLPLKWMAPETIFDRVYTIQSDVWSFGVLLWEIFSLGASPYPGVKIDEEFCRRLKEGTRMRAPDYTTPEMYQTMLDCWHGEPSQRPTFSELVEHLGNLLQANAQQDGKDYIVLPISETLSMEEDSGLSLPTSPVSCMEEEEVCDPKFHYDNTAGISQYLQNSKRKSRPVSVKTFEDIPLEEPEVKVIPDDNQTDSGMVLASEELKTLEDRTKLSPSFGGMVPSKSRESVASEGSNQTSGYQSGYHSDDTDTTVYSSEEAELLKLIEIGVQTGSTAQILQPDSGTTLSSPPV
T1 sequence (P07949 29-1114): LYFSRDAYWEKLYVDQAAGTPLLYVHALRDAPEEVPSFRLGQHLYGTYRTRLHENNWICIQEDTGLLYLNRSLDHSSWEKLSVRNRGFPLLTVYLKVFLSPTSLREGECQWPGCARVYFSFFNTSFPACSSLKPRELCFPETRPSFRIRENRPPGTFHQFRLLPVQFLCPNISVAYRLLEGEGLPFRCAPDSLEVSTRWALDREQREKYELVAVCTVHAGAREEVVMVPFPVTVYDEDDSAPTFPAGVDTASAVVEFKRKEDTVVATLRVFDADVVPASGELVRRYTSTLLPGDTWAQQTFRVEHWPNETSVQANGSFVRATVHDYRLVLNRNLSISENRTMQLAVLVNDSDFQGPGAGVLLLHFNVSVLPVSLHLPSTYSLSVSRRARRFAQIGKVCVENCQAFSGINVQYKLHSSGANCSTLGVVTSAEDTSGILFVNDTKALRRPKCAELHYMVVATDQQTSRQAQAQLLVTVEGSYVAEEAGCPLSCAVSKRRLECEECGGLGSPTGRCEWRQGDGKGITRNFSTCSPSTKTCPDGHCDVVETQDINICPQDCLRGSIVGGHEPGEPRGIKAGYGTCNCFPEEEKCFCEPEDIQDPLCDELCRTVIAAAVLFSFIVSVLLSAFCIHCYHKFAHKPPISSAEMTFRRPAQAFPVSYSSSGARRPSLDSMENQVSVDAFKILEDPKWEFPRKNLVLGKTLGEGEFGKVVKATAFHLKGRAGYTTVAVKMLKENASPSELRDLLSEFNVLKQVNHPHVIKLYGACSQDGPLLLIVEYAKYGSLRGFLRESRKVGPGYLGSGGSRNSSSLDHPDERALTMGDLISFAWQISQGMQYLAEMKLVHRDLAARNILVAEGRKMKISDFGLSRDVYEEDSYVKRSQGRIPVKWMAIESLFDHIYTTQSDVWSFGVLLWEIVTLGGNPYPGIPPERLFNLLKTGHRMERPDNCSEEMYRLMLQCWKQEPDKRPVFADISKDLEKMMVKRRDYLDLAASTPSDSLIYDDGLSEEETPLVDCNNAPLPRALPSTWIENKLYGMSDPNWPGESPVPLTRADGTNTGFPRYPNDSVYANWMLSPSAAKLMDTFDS

IC50 [1] [nM]	IC50 [2] [nM]	Ratio (KDR/RET) [2]	Compound	further results
1.22	1.6	1.3	COc1ccc(OC2CCN(c3ccc(-c4cc(C#CC(C)(C)O)cn5ncc(C#N)c45)cn3)CC2)cn1 [Embodiment 32, 6-(3-Hydroxy-3-methylbut-1-yn-1-yl)-4-(6-(4-((6-methoxypyridin-3-yl)oxo)piperidin-1-yl)pyridin-3-yl)pyrazolo[1,5-a]pyridine-3-carbonitrile]	
3.6	124	35	Cc1ccc(F)cc1C(=O)NC1(C)CC2CN(c3ccc(-c4cc(OCC(C)(C)O)cn5ncc(C#N)c45)cn3)CC2C1 (stereo not drawn) [Embodiment 75, N-(2-(5-(3-cyano-6-(2-hydroxy-2-methylpropoxy)pyrazolo[1,5-a]pyridin-4-yl)pyridin-2-yl)-5-methyloctahydrocyclopenta[c]pyrrol-5-yl)-5-fluoro-2-methylbenzamide]	
1.3	17	14	CC(C)(O)COc1cc(-c2ccc(N3CCC(N)(C(=O)N4CCc5ccccc54)CC3)nc2)c2c(C#N)cnn2c1 [Embodiment 62, 4-(6-(4-Amino-4-(indoline-1-carbonyl)piperidin-1-yl)pyridin-3-yl)-6-(2-hydroxy-2-methylpropoxy)pyrazolo[1,5-a]pyridine-3-carbonitrile]	
			C#C[C@](C)(O)COc1cc(-c2ccc(N3CC4CC(C3)N4Cc3ccc(OC)nc3)nc2)c2c(C#N)cnn2c1 [Embodiment 153, 6-(((S)-2-hydroxy-2-methylbut-3-yn-1-yl)oxy)-4-(6-(6-((6-methoxypyridin-3-yl)methyl)-3,6-diazabicyclo[3.1.1]heptan-3-yl)pyridin-3-yl)pyrazolo[1,5-a]pyridine-3-carbonitrile]	inhibition of ERK phosphorylation ([4]; 11.1 nM, 2 hours at 37° C., TT cells): inhibit half of the ERK phosphorylation level; inhibition of the phosphorylation level of ERK in TT cells, overall [4]: significantly inhibit
			COc1ccc(CN2C3CC2CN(c2ccc(-c4cc(N5CC(C)(C#N)C5)cn5ncc(C#N)c45)cn2)C3)cn1 [Embodiment 168, 6-(3-Cyano-3-methylazetidin-1-yl)-4-(6-(6-((6-methoxypyridin-3-yl)methyl)-3,6-diazabicyclo[3.1.1]heptan-3-yl)pyridin-3-yl)pyrazolo[1,5-a]pyridine-3-carbonitrile]	Tumor inhibition rate TGI d 22 ([5]; 10 mg/kg): 129.77%; Tumor volume (mm^3, mean ± SEM) d 22 ([5]; 10 mg/kg): 144.14 ± 8.95 mm^3; Tumor volume (mm^3, mean ± SEM) d 0 ([5]; 10 mg/kg): 205.23 ± 16.57 mm^3
			COc1ccc(CN2C3CC2CN(c2ccc(-c4cc(OCC(C)(C)C#N)cn5ncc(C#N)c45)cn2)C3)cn1 [Embodiment 34, 6-(2-Cyano-2-methylpropoxy)-4-(6-(6-((6-methoxypyridin-3-yl)methyl)-3,6-diazabicyclo[3.1.1]heptan-3-yl)pyridin-3-yl)pyrazolo[1,5-a]pyridine-3-carbonitrile]	Half-life t1/2 [6]: 4.2 h
			C#C[C@@](C)(O)COc1cc(-c2ccc(N3CC4CC(C3)N4Cc3ccc(OC)nc3)nc2)c2c(C#N)cnn2c1 [Embodiment 152, 6-(((R)-2-hydroxy-2-methylbut-3-yn-1-yl)oxy)-4-(6-(6-((6-methoxypyridin-3-yl)methyl)-3,6-diazabicyclo[3.1.1]heptan-3-yl)pyridin-3-yl)pyrazolo[1,5-a]pyridine-3-carbonitrile]	inhibition of the phosphorylation level of ERK in TT cells, overall [4]: significantly inhibit
			COc1ncc(CN2C3CC2CN(c2ccc(-c4cc(C#CC(C)(C)O)cn5ncc(C#N)c45)cn2)C3)cc1F [Embodiment 94, 4-(6-(6-((5-Fluoro-6-methoxypyridin-3-yl)methyl)-3,6-diazabicyclo[3.1.1]heptan-3-yl)pyridin-3-yl)-6-(3-hydroxy-3-methylbut-1-yn-1-yl)pyrazolo[1,5-a]pyridine-3-carbonitrile]	Tumor inhibition rate TGI d 22 ([5]; 30 mg/kg): 99.64%; Tumor volume (mm^3, mean ± SEM) d 22 ([5]; 30 mg/kg): 203.56 ± 31.74 mm^3; Tumor volume (mm^3, mean ± SEM) d 0 ([5]; 30 mg/kg): 199.73 ± 24.07 mm^3
			COc1ccc(CN2C3CC2CN(c2ccc(-c4cc(OCC56CC(C#N)(C5)C6)cn5ncc(C#N)c45)cn2)C3)cn1 [Embodiment 138, 6-((3-Cyanobicyclo[1.1.1]pentan-1-yl)methoxy)-4-(6-(6-((6-methoxypyridin-3-yl)methyl)-3,6-diazabicyclo[3.1.1]heptan-3-yl)pyridin-3-yl)pyrazolo[1,5-a]pyridine-3-carbonitrile]	IC50 ([3]; 72 hours): 25.1 nM

Compound	IC50 [1] [nM]	IC50 [2] [nM]	Ratio (KDR/RET) [2]	further results
6-((1-Imino-1-hydroxy-1l6-thietan-3-yl)methoxy)-4-(6-(6-((6-methoxypyridin-3-yl)methyl)-3,6-diazabicyclo[3.1.1]heptan-3-yl)pyridin-3-yl)pyrazolo[1,5-a]pyridine-3-carbonitrile [Embodiment 85]	1.3	69	55	
COc1ccc(CN2C3CC2CN(c2ccc(-c4cc(/C=C/C(C)(C)O)cn5ncc(C#N)c45)cn2)C3)cn1 [Embodiment 127]	0.26	6.5	25	IC50 ([3]; Homo sapiens, TT, 72 h): 5.87 nM
